Values quoted from earlier work as cited in US11439715B2, “Compositions and methods to detect GLUA1 in brain and to identify the presence of GLUA1-mediated post-traumatic stress disorder and other neurological disorders” (Neurovation Labs, Inc., priority 2017, dated 2022).
Entries after “also recorded” stand apart in the source; their conditions may differ. Read-outs that look alike come from different tables or passages of the source.

Columns and labels:
[1] = test system: Stress-Enhanced Fear Learning (SEFL), a rodent model of PTSD
GluA2 = conditions: stressed and unstressed rats, measured three weeks after the trauma
GluN1 = conditions: stressed and unstressed rats, measured three weeks after the trauma
GluA1 = conditions: stressed rats, metyrapone given before the trauma, measured three weeks after the trauma

SMILES | percent freezing in Context B on Day 3 (sensitized fear, SEFL) ([1]; intra-BLA infusion post-trauma, compared with stressed controls (ACSF or MSO), hydrobromide) | GluA2 levels in the BLA (GluA2:GAPDH optical density ratio) (GluA2) | GluN1 levels in the BLA (GluN1:GAPDH optical density ratio) (GluN1) | GluA1 protein levels in the BLA (GluA1:GAPDH optical density ratio) (GluA1) | GluA1 protein levels in the BLA (GluA1:GAPDH optical density ratio) (GluA1; listed as metyrapone) | SEFL (stress-enhanced fear learning) ([1]; metyrapone given before the trauma)
Br.C[N+](C)(C)CCCCCNCC12CC3CC(CC(C3)C1)C2.[Br-] [IEM-1460, N,N,H,-Trimethyl-5-[(tricyclo[3.3.1.13,7]dec-1-ylmethyl)amino]-1-pentanaminiumbromide hydrobromide] | significantly reduces freezing in Context B; also recorded: attenuate SEFL |  |  |  |  | 
CC(C)(C(=O)c1cccnc1)c1cccnc1 [Metyrapone] |  | Neither stress nor metyrapone had an effect on GluA2 levels | Neither stress nor metyrapone had an effect on GluN1 levels | prevented GluA1 increases | significantly higher in stressed rats than in unstressed rats and metyrapone-treated rats | effectively preventing SEFL
